Results: ChEMBL document CHEMBL2440003, “Novel BACE1 inhibitors with a non-acidic heterocycle at the P1' position” (Bioorg Med Chem, 2013)

What was measured:
Beta-secretase 1 [1] = biological target: T1, Beta-secretase 1 (Homo sapiens, UniProt P56817); test: Inhibition of recombinant human BACE1 at 2 uM by FRET analysis
Beta-secretase 1 [2] = biological target: T1, Beta-secretase 1; test: Inhibition of recombinant human BACE1 at 0.2 uM by FRET analysis
Renin = biological target: T2, Renin (Homo sapiens, UniProt P00797); test: Inhibition of human renin
T2 sequence (P00797 whole entry): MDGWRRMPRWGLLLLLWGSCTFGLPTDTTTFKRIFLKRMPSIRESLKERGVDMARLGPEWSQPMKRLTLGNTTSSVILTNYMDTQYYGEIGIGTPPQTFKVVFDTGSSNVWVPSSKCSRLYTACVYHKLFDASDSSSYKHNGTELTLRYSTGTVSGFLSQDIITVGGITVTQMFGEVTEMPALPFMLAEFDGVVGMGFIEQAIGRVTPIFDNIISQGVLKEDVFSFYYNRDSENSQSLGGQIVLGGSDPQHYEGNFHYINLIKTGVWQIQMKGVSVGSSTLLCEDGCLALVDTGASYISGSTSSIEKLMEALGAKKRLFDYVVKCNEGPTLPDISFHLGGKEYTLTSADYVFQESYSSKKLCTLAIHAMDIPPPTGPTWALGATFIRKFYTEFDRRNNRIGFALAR

Beta-secretase 1 [3] = biological target: T1, Beta-secretase 1; test: Inhibition of recombinant human BACE1 by FRET analysis

T1 sequence (P56817 whole entry): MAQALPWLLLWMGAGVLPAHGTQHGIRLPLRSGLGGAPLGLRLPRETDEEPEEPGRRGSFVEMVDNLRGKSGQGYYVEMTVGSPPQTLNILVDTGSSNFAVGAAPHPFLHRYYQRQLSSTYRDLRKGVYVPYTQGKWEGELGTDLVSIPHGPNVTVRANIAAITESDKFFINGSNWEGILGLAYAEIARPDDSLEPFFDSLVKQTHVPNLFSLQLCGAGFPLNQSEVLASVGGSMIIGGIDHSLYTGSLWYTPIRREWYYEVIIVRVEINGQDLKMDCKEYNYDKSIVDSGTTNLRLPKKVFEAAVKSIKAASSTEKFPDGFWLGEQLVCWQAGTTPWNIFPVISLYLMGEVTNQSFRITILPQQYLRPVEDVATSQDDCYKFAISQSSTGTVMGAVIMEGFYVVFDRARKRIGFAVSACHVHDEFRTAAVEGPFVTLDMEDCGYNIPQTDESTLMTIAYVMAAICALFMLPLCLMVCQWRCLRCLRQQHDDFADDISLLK

Row | SMILES | inhibition (Beta-secretase 1 [1]) | inhibition (Beta-secretase 1 [2]) | IC50 (Renin) | IC50 (Beta-secretase 1 [3])
1 | C[C@@H](NC(=O)c1cc(C(=O)N[C@@H](Cc2ccccc2)[C@@H](O)C(=O)Nc2ncc(Br)s2)cc(N(C)S(C)(=O)=O)c1)c1ccccc1 | 78% | – | – | –
2 | C[C@@H](NC(=O)c1cc(C(=O)N[C@@H](Cc2ccccc2)[C@@H](O)C(=O)Nc2ncc([N+](=O)[O-])s2)cc(N(C)S(C)(=O)=O)c1)c1ccccc1 | 96% | 73% | – | –
3 | COC(=O)c1cnc(NC(=O)[C@H](O)[C@H](Cc2ccccc2)NC(=O)c2cc(C(=O)N[C@H](C)c3ccccc3)cc(N(C)S(C)(=O)=O)c2)s1 | 87% | 56% | – | –
4 | CCc1nnc(NC(=O)[C@H](O)[C@H](Cc2ccccc2)NC(=O)c2cc(C(=O)N[C@H](C)c3ccccc3)cc(N(C)S(C)(=O)=O)c2)s1 | 88% | 51% | – | –
5 | Cc1nnc(NC(=O)[C@@H](O)[C@H](Cc2ccccc2)NC(=O)c2cc(C(=O)N[C@H](C)c3ccccc3)cc(N(C)S(C)(=O)=O)c2)s1 | 58% | – | – | –
6 | C[C@@H](NC(=O)c1cc(C(=O)N[C@@H](Cc2ccccc2)[C@@H](O)C(=O)Nc2nncs2)cc(N(C)S(C)(=O)=O)c1)c1ccccc1 | 83% | 39% | – | –
7 | C[C@@H](NC(=O)c1cc(C(=O)N[C@@H](Cc2ccccc2)[C@@H](O)C(=O)Nc2nnc(C(F)(F)F)s2)cc(N(C)S(C)(=O)=O)c1)c1ccccc1 | 96% | 75% | – | –
8 | Cc1nnc(NC(=O)[C@H](O)[C@H](Cc2ccccc2)NC(=O)c2cc(C(=O)N[C@H](C)c3ccccc3)cc(N(C)S(C)(=O)=O)c2)s1 | 90% | 50% | – | –
9 | C[C@@H](NC(=O)c1cc(C(=O)N[C@@H](Cc2ccccc2)[C@H](O)C(=O)Nc2nncs2)cc(N(C)S(C)(=O)=O)c1)c1ccccc1 | 38% | – | – | –
10 | C[C@@H](NC(=O)c1cc(C(=O)N[C@@H](Cc2ccccc2)[C@@H](O)C(=O)Nc2nc3ccccc3s2)cc(N(C)S(C)(=O)=O)c1)c1ccccc1 | 29% | – | – | –
11 | C[C@@H](NC(=O)c1cc(C(=O)N[C@@H](Cc2ccccc2)[C@@H](O)C(=O)Nc2nccs2)cc(N(C)S(C)(=O)=O)c1)c1ccccc1 | 48% | – | – | –
12 | C[C@@H](NC(=O)c1cc(C(=O)N[C@@H](Cc2ccccc2)[C@H](O)CNC2CC2)cc(N(C)S(C)(=O)=O)c1)c1ccccc1 | – | – | > 50000 nM | –
13 | C[C@@H](NC(=O)c1cc(C(=O)N[C@@H](Cc2ccccc2)[C@H](O)C(=O)Nc2nccs2)cc(N(C)S(C)(=O)=O)c1)c1ccccc1 | 19% | – | – | –
14 | CCSc1nnc(NC(=O)[C@H](O)[C@H](Cc2ccccc2)NC(=O)c2cc(C(=O)N[C@H](C)c3ccccc3)cc(N(C)S(C)(=O)=O)c2)s1 | 86% | 45% | – | –
15 | C[C@@H](NC(=O)c1cc(C(=O)N[C@@H](Cc2ccccc2)[C@@H](O)C(=O)Nc2nnc(-c3ccccc3)s2)cc(N(C)S(C)(=O)=O)c1)c1ccccc1 | 43% | – | – | –
16 | C[C@@H](NC(=O)c1cc(C(=O)N[C@@H](Cc2ccccc2)[C@@H](O)C(=O)Nc2nnc(Br)s2)cc(N(C)S(C)(=O)=O)c1)c1ccccc1 | 97% | 79% | – | 26 nM
17 | CSc1nnc(NC(=O)[C@H](O)[C@H](Cc2ccccc2)NC(=O)c2cc(C(=O)N[C@H](C)c3ccccc3)cc(N(C)S(C)(=O)=O)c2)s1 | 84% | 43% | – | –
18 | C[C@@H](NC(=O)c1cc(C(=O)N[C@@H](Cc2ccccc2)[C@H](O)C(=O)Nc2nc3ccccc3s2)cc(N(C)S(C)(=O)=O)c1)c1ccccc1 | 5% | – | – | –
19 | COC(=O)c1csc(NC(=O)[C@H](O)[C@H](Cc2ccccc2)NC(=O)c2cc(C(=O)N[C@H](C)c3ccccc3)cc(N(C)S(C)(=O)=O)c2)n1 | 30% | – | – | –
20 | C[C@@H](NC(=O)c1cc(C(=O)N[C@@H](Cc2ccccc2)[C@@H](O)C(=O)Nc2nnc(-c3ccncc3)s2)cc(N(C)S(C)(=O)=O)c1)c1ccccc1 | 49% | – | – | –
21 | C[C@@H](NC(=O)c1cc(C(=O)N[C@@H](Cc2ccccc2)[C@@H](O)C(=O)Nc2nnc(C(C)(C)C)s2)cc(N(C)S(C)(=O)=O)c1)c1ccccc1 | 48% | – | – | –
